Laboratory results as given in patent US12173007B2, “Imidazopyridazine IL-17 inhibitor compounds” (Janssen Pharmaceutica NV, priority 2021, dated 2024).

Columns and labels:
[1] = tested on: IL-17A-induced G-CSF production in human normal keratinocyte (NHK); test: NHK assay: IL-17A-induced G-CSF production in normal human keratinocytes; format: cell-based; conditions: Homo sapiens, Keratinocyte, 24 h, IL-17A 5 ng/mL, G-CSF by HTRF, average if tested more than once
Summary of the method: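 Compound titrations are first mixed with recombinant human IL-17A for 1 h at room temperature. The mixture goes onto adult normal human keratinocytes (final IL-17A 5 ng/mL, 5% FBS, 0.2% DMSO) for 24 h at 37 °C. Secreted G-CSF is then measured by HTRF and IC50 fitted.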

[2] = biological target: IL-17A(FLAG-Tagged): IL-17RA(His-Tagged) binding (Homo sapiens, UniProt Q16552, K93Q); test: IL-17A(FLAG-tagged):IL-17RA(His-tagged) binding disruption Eu-HTRF assay, Protocol 1; conditions: FLAG-IL-17A 2.5 nM; average if tested more than once
Sequence of UniProt Q16552 (Q16552 with tags, fused parts or gaps K93Q): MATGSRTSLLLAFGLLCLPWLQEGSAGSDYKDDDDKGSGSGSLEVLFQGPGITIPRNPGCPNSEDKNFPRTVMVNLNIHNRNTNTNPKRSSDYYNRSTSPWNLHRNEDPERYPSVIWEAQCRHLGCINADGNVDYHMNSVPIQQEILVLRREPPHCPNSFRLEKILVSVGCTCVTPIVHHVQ
Excerpt: IL-17A(FLAG-Tagged): IL-17RA(His-Tagged) Binding Disruption Eu-HTRF Assay
An antibody directed against the FLAG tag of IL-17A (SEQ ID NO: 1) is labeled with the HTRF donor chromophore (Europium-cryptate). IL-17A is present as a dimer that is “locked into” this quaternary structure due to the formation of loop-spanning […] disulfide bridges. The construct of IL-17RA used in the assay excludes the […] portion of the receptor and is fused to a C-terminal 10×His tag (SEQ ID NO:2). An antibody directed against the His tag of the IL-17RA chimera is labeled with the HTRF acceptor chromophore (“D2”). The fluorescence-resonance energy transfer (FRET) depends on the vicinity of the donor chromophore to the acceptor, and interruption of the binding between the IL-17A and IL-17RA causes the reduction/loss of FRET. Therefore, this assay allows to evaluate the compound effect on the binding IL-17A and IL-17RA by monitoring the fluorescence intensity of donor vs acceptor. The assay was run using either Protocol 1 or Protocol 2 as described below.
Protocol 1. 40 nl of 2-fold serial diluted compound solution for total 22 dilution points is added into each well of a 1536-well, white, low-volume, non-binding plate (Greiner #782904), then 2 μl of FLAG tagged IL-17A at 2×final concentration (2.5 nM) in solution of PBS+0.01% Triton-X100 is added to each well. The assay plate is briefly centrifuged then incubated for 1 h at rt. A mixed solution is prepared containing 2×5 nM 10HIS×IL-17RA, 2×2.5 nM Eu-anti-FLAG (CISBIO), 2×5 nM D2-anti-HIS (CISBIO) in PBS+0.01% Triton-X100+200 mM Potassium Fluoride (Sigma 60238) and 2 μl of mix is added to each well of the assay plate. The plate is briefly centrifuged then incubated for 2 h at rt. The HTRF intensities at the wavelength of donor (620 nm) and acceptor (665 nm) are measured using BMG Pherastar. The ratio between intensities at two wavelengths is calculated and plotted against the compound concentration and the data is fitted to a one-site competition model to yield IC50 of the compound.

| SMILES | IC50 [2] [nM] | IC50 [1] [nM] |
| --- | --- | --- |
| O=C(N[C@H](c1cn2ncc([C@@H](C3CC3)N3CC(F)(F)CNC3=O)cc2n1)C1CCC(F)(F)CC1)c1nonc1C1CC1 [Example 7, 4-Cyclopropyl-N—((S)-(7-((R)-cyclopropyl(5,5-difluoro-2-oxotetrahydropyrimidin-1(2H)-yl)methyl)imidazo[1,2-b]pyridazin-2-yl)(4,4-difluorocyclohexyl)methyl)-1,2,5-oxadiazole-3-carboxamide] | < 50 | < 50 |
| Cc1nonc1C(=O)N[C@H](c1cn2ncc([C@@H](C3CC3)N3CC(F)(F)CNC3=O)cc2n1)C1CCC(F)(F)CC1 [Example 8, N—((S)-(7-((R)-Cyclopropyl(5,5-difluoro-2-oxotetrahydropyrimidin-1(2H)-yl)methyl)imidazo[1,2-b]pyridazin-2-yl)(4,4-difluorocyclohexyl)methyl)-4-methyl-1,2,5-oxadiazole-3-carboxamide] | < 50 | 50 to 100 |
| [2H]C([2H])([2H])C([2H])([2H])n1nccc1C(=O)N[C@H](c1cn2ncc([C@@H](C3CC3)N3CC(F)(F)CNC3=O)cc2n1)C1CCC(F)(F)CC1 [Example 9, N—((S)-(7-((R)-Cyclopropyl(5,5-difluoro-2-oxotetrahydropyrimidin-1(2H)-yl)methyl)imidazo[1,2-b]pyridazin-2-yl)(4,4-difluorocyclohexyl)methyl)-1-(ethyl-d5)-1H-pyrazole-5-carboxamide] | < 50 | < 50 |
| CC(C)n1nccc1C(=O)N[C@H](c1cn2ncc([C@@H](C3CC3)N3CC(F)(F)CNC3=O)cc2n1)C1CCC(F)(F)CC1 [Example 10, N—((S)-(7-((R)-Cyclopropyl(5,5-difluoro-2-oxotetrahydropyrimidin-1(2H)-yl)methyl)imidazo[1,2-b]pyridazin-2-yl)(4,4-difluorocyclohexyl)methyl)-1-isopropyl-1H-pyrazole-5-carboxamide] | 50 to 100 | < 50 |
| COC[C@H](c1cnn2cc([C@@H](NC(=O)c3nonc3C)C3CCC(F)(F)CC3)nc2c1)N1CC(F)(F)CNC1=O [Example 12, N—((S)-(7-((S)-1-(5,5-Difluoro-2-oxotetrahydropyrimidin-1(2H)-yl)-2-methoxyethyl)imidazo[1,2-b]pyridazin-2-yl)(4,4-difluorocyclohexyl)methyl)-4-methyl-1,2,5-oxadiazole-3-carboxamide] | < 50 | < 50 |
| [2H]C([2H])([2H])C([2H])([2H])n1nccc1C(=O)N[C@H](c1cn2ncc([C@@H](COC)N3CC(F)(F)CNC3=O)cc2n1)C1CCC(F)(F)CC1 [Example 13, N—((S)-(7-((S)-1-(5,5-Difluoro-2-oxotetrahydropyrimidin-1(2H)-yl)-2-methoxyethyl)imidazo[1,2-b]pyridazin-2-yl)(4,4-difluorocyclohexyl)methyl)-1-(ethyl-d5)-1H-pyrazole-5-carboxamide] | 50 to 100 | < 50 |
| COC[C@H](c1cnn2cc([C@@H](NC(=O)c3ccnn3C(C)C)C3CCC(F)(F)CC3)nc2c1)N1CC(F)(F)CNC1=O [Example 14, N—((S)-(7-((S)-1-(5,5-Difluoro-2-oxotetrahydropyrimidin-1(2H)-yl)-2-methoxyethyl)imidazo[1,2-b]pyridazin-2-yl)(4,4-difluorocyclohexyl)methyl)-1-isopropyl-1H-pyrazole-5-carboxamide] | 50 to 100 | < 50 |
| CC(C)(OC[C@H](NC(=O)c1nonc1C1CC1)c1cn2ncc(CN3CC(F)(F)CNC3=O)cc2n1)C(F)(F)F [Example 17, (R)-4-Cyclopropyl-N-(1-(7-((5,5-difluoro-2-oxotetrahydropyrimidin-1(2H)-yl)methyl)imidazo[1,2-b]pyridazin-2-yl)-2-((1,1,1-trifluoro-2-methylpropan-2-yl)oxy)ethyl)-1,2,5-oxadiazole-3-carboxamide] | < 50 | < 50 |
| O=C(N[C@H](c1cn2ncc(CN3CCCNC3=O)cc2n1)C1CCC(F)(F)CC1)c1nonc1C1CC1 [Example 18, (S)-4-Cyclopropyl-N-((4,4-difluorocyclohexyl)(7-((2-oxotetrahydropyrimidin-1(2H)-yl)methyl)imidazo[1,2-b]pyridazin-2-yl)methyl)-1,2,5-oxadiazole-3-carboxamide] | > 100 | > 100 |
| CC(C)n1nccc1C(=O)N[C@H](c1cn2ncc(CN3CCCNC3=O)cc2n1)C1CCC(F)(F)CC1 [Example 19, (S)—N-((4,4-Difluorocyclohexyl)(7-((2-oxotetrahydropyrimidin-1(2H)-yl)methyl)imidazo[1,2-b]pyridazin-2-yl)methyl)-1-isopropyl-1H-pyrazole-5-carboxamide] | > 100 | > 100 |

The next lines start with results.

| IC50 [2] [nM] | SMILES | IC50 [1] [nM] |
| --- | --- | --- |
| < 50 | O=C(N[C@H](c1cn2ncc(CN3CC(F)(F)CNC3=O)cc2n1)C1CCC(F)(F)CC1)c1nonc1C1CC1 [Example 20, (S)-4-Cyclopropyl-N-((7-((5,5-difluoro-2-oxotetrahydropyrimidin-1(2H)-yl)methyl)imidazo[1,2-b]pyridazin-2-yl)(4,4-difluorocyclohexyl)methyl)-1,2,5-oxadiazole-3-carboxamide] | < 50 |
| > 100 | CC(C)n1nccc1C(=O)N[C@H](c1cn2ncc(CN3CC(F)(F)CNC3=O)cc2n1)C1CCC(F)(F)CC1 [Example 21, (S)—N-((7-((5,5-Difluoro-2-oxotetrahydropyrimidin-1(2H)-yl)methyl)imidazo[1,2-b]pyridazin-2-yl)(4,4-difluorocyclohexyl)methyl)-1-isopropyl-1H-pyrazole-5-carboxamide] | < 50 |
| 50 to 100 | O=C(N[C@H](c1cn2ncc(CN3CC(F)(F)CNC3=O)cc2n1)C1CCC(F)(F)CC1)c1conc1COC(F)F [Example 22, (S)—N-((7-((5,5-Difluoro-2-oxotetrahydropyrimidin-1(2H)-yl)methyl)imidazo[1,2-b]pyridazin-2-yl)(4,4-difluorocyclohexyl)methyl)-3-((difluoromethoxy)methyl)isoxazole-4-carboxamide] | 50 to 100 |
| > 100 | CC(C)n1ncnc1C(=O)N[C@H](c1cn2ncc(CN3CC(F)(F)CNC3=O)cc2n1)C1CCC(F)(F)CC1 [Example 23, (S)—N-((7-((5,5-Difluoro-2-oxotetrahydropyrimidin-1(2H)-yl)methyl)imidazo[1,2-b]pyridazin-2-yl)(4,4-difluorocyclohexyl)methyl)-1-isopropyl-1H-1,2,4-triazole-5-carboxamide] | > 100 |
| > 100 | O=C(N[C@H](c1cn2ncc(CN3CC(F)(F)CNC3=O)cc2n1)C1CCC(F)(F)CC1)c1cnn(CC2CC2)n1 [Example 24, (S)-2-(Cyclopropylmethyl)-N-((7-((5,5-difluoro-2-oxotetrahydropyrimidin-1(2H)-yl)methyl)imidazo[1,2-b]pyridazin-2-yl)(4,4-difluorocyclohexyl)methyl)-2H-1,2,3-triazole-4-carboxamide] | > 100 |
| 50 to 100 | [2H]C([2H])([2H])C([2H])([2H])n1nccc1C(=O)N[C@H](c1cn2ncc(CN3CC(F)(F)CNC3=O)cc2n1)C1CCC(F)(F)CC1 [Example 25, (S)—N-((7-((5,5-Difluoro-2-oxotetrahydropyrimidin-1(2H)-yl)methyl)imidazo[1,2-b]pyridazin-2-yl)(4,4-difluorocyclohexyl)methyl)-1-(ethyl-d5)-1H-pyrazole-5-carboxamide] | < 50 |
| < 50 | O=C(N[C@H](c1cn2ncc(CN3CC(F)(F)CNC3=O)cc2n1)C1CCC(F)(F)CC1)c1nonc1OCC(F)F [Example 26, (S)—N-((7-((5,5-Difluoro-2-oxotetrahydropyrimidin-1(2H)-yl)methyl)imidazo[1,2-b]pyridazin-2-yl)(4,4-difluorocyclohexyl)methyl)-4-(2,2-difluoroethoxy)-1,2,5-oxadiazole-3-carboxamide] | < 50 |
| > 100 | O=C(N[C@H](c1cn2ncc(CN3CC(F)(F)CNC3=O)cc2n1)C1CCC(F)(F)CC1)c1cnn(CCC(F)(F)F)n1 [Example 27, (S)—N-((7-((5,5-Difluoro-2-oxotetrahydropyrimidin-1(2H)-yl)methyl)imidazo[1,2-b]pyridazin-2-yl)(4,4-difluorocyclohexyl)methyl)-2-(3,3,3-trifluoropropyl)-2H-1,2,3-triazole-4-carboxamide] | > 100 |
